Where two headings read alike, the source gives them in different places.
Key:
Type in all cases: cell-based
human TLR9 = target: T1, human TLR9 (Homo sapiens, UniProt Q9NR96); assay: TLR9 inhibition reporter assay (HEK-Blue cells, secreted embryonic alkaline phosphatase reporter); settings: HEK-Blue cells overexpressing human TLR9, stimulated with ODN2006 5 nM
T1 construct: host or cells: HEK-Blue cells (HEK293-derived reporter line)
T1 sequence (Q9NR96 26-1032): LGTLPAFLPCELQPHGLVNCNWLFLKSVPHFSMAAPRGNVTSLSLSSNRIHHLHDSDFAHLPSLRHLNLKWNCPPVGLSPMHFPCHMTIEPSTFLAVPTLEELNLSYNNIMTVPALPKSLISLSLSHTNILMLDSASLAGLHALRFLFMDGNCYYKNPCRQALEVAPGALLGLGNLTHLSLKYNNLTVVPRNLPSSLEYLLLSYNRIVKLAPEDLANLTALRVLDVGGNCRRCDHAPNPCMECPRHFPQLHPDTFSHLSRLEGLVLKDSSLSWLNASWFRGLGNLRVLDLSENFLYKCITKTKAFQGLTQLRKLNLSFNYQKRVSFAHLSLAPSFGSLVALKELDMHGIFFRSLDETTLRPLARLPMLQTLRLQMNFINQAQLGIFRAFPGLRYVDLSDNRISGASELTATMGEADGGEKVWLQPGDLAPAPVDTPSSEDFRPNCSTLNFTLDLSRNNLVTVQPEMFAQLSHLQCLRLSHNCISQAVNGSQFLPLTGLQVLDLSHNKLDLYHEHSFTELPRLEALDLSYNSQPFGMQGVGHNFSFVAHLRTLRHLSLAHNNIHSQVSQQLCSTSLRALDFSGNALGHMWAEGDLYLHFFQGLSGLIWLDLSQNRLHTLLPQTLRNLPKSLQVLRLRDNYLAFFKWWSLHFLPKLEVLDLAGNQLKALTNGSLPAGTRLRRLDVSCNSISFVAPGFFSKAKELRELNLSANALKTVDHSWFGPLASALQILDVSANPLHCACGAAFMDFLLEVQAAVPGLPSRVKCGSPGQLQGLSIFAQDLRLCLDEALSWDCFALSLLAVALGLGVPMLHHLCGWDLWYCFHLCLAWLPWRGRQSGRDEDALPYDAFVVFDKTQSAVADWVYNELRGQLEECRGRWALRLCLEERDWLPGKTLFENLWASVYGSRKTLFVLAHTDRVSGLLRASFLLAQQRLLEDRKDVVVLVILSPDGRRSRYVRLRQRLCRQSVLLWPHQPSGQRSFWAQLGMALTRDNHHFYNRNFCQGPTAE
Procedure, shortened: (§1)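 Agonist-driven SEAP output was measured in HEK-Blue reporter cells carrying human TLR7 (gardiquimod 7.5 μM), TLR8 (R848 15.9 μM) or TLR9 (ODN2006 5 nM). Compounds at 0.05 nM–50 μM final were added 30 min before stimulation at room temperature. After 22 h at 37 °C, percent inhibition was taken against agonist/DMSO wells and a reference inhibitor.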

human TLR7 = target: T2, human TLR7 (Homo sapiens, UniProt Q9NYK1); assay: TLR7 inhibition reporter assay (HEK-Blue cells, secreted embryonic alkaline phosphatase reporter); settings: HEK-Blue cells overexpressing human TLR7, stimulated with gardiquimod 7.5 μM; read-out: TLR 7 IC50
T2 construct: host or cells: HEK-Blue cells (HEK293-derived reporter line)
T2 sequence (Q9NYK1 27-1049): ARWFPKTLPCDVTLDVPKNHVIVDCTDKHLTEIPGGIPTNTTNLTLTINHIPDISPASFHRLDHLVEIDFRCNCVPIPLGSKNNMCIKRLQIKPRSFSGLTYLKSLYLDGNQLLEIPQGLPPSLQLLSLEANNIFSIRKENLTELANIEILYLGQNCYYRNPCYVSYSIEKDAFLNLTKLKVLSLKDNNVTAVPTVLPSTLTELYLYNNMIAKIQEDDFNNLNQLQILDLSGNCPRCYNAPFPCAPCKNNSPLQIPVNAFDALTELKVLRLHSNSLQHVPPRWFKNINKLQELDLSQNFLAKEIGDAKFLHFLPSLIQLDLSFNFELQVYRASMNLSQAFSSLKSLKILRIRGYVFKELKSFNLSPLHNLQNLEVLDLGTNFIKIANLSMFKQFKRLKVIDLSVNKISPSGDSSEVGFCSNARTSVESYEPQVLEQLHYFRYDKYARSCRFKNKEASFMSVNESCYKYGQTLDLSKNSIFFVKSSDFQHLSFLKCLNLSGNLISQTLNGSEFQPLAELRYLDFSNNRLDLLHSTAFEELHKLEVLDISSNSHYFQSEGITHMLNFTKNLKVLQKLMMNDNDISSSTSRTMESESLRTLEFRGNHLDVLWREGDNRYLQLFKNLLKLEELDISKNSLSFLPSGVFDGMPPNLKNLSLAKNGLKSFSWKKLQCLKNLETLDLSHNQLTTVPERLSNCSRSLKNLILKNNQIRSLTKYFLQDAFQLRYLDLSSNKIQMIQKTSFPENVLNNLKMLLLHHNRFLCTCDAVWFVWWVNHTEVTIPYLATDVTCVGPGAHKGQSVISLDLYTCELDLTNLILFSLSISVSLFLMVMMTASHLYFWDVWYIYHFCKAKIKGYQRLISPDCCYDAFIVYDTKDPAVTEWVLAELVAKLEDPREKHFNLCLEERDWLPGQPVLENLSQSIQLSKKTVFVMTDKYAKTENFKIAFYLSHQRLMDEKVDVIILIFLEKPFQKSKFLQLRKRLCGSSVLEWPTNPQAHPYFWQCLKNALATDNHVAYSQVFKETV
Procedure, shortened: as §1

human TLR8 = target: T3, human TLR8 (Homo sapiens, UniProt Q9NR97); assay: TLR8 inhibition reporter assay (HEK-Blue cells, secreted embryonic alkaline phosphatase reporter); settings: HEK-Blue cells overexpressing human TLR8, stimulated with R848 15.9 μM; read-out: TLR 8 IC50
T3 construct: host or cells: HEK-Blue cells (HEK293-derived reporter line)
T3 sequence (Q9NR97 27-1041): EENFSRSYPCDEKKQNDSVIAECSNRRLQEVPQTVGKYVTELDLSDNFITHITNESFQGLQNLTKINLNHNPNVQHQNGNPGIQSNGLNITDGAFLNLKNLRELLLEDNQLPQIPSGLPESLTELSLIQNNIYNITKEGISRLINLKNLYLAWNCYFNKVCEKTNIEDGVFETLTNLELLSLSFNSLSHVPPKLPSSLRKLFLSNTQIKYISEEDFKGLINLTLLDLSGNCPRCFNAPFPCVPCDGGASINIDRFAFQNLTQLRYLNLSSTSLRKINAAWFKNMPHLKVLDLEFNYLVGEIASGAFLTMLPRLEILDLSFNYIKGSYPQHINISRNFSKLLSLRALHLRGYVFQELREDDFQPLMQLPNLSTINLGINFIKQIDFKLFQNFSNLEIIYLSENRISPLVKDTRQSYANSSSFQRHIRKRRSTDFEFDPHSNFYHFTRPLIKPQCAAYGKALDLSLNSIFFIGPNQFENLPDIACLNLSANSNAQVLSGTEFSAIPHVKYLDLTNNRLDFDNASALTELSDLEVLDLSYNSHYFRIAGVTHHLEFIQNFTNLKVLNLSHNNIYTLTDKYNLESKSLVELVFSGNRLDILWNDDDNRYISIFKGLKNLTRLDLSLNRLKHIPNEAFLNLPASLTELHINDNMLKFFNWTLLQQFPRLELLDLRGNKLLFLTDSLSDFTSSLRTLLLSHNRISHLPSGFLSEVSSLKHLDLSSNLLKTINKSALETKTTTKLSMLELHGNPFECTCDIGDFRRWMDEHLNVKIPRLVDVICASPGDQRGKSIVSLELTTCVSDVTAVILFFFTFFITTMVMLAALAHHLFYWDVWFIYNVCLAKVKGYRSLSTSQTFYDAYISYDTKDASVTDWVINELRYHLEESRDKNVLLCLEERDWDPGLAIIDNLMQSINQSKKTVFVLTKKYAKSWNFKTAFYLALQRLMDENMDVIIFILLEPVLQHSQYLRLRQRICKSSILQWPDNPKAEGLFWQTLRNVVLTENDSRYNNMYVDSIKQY
Procedure, shortened: as §1

[1] = 22 hour incubation, reporter readout

SMILES | IC50 (human TLR9; [1]) | IC50 (human TLR9; read-out: TLR 9 IC50) | IC50 (human TLR7) | IC50 (human TLR8)
COc1ccc(-c2nc3c(C)cc(C4CC5CCC(C4)N5C4CCN(CC(C)C)CC4)cc3n2C)cc1OC (stereo not drawn) [Example 50, 2-(3,4-dimethoxyphenyl)-6-(8-(1-isobutylpiperidin-4-yl)-8-azabicyclo[3.2.1]octan-3-yl)-1,4-dimethyl-1H-benzo[d]imidazole] | 23 nM | 23 nM | 2900 nM | > 50000 nM
COc1ccc(-c2nc3c(C)cc(C4CC5CCC(C4)N5C4CCN(C5CC5)CC4)cc3n2C)cc1OC (stereo not drawn) [Example 51, 6-(8-(1-cyclopropylpiperidin-4-yl)-8-azabicyclo[3.2.1]octan-3-yl)-2-(3,4-dimethoxyphenyl)-1,4-dimethyl-1H-benzo[d]imidazole] | 130 nM | 130 nM | 20000 nM | > 50000 nM
Cc1cc(C2CCN(C3CCN(CC(C)C)CC3)CC2)cc2c1nc(-c1ccc(S(C)(=O)=O)cc1)n2C [Example 52, 6-(1′-isobutyl-[1,4′-bipiperidin]-4-yl)-1,4-dimethyl-2-(4-(methylsulfonyl)phenyl)-1H-benzo[d]imidazole] | 130 nM | 129 nM | 4800 nM | > 50000 nM
Cc1cc(C2CCN(C3CCN(C4CC4)CC3)CC2)cc2c1nc(-c1ccc(S(C)(=O)=O)cc1)n2C [Example 53, 6-(1′-cyclopropyl-[1,4′-bipiperidin]-4-yl)-1,4-dimethyl-2-(4-(methylsulfonyl)phenyl)-1H-benzo[d]imidazole] | 420 nM | 421 nM | 24000 nM | > 50000 nM
COc1ccc(-c2nc3c(C)cc(C4CCN(C5CCN(CC(C)C)CC5)CC4)cc3n2C)cc1F [Example 54, 2-(3-fluoro-4-methoxyphenyl)-6-(1′-isobutyl-[1,4′-bipiperidin]-4-yl)-1,4-dimethyl-1H-benzo[d]imidazole] | 130 nM | 131 nM | 7700 nM | > 50000 nM
COc1ccc(-c2nc3c(C)cc(C4CCN(C5CCN(C6CC6)CC5)CC4)cc3n2C)cc1F [Example 55, 6-(1′-cyclopropyl-[1,4′-bipiperidin]-4-yl)-2-(3-fluoro-4-methoxyphenyl)-1,4-dimethyl-1H-benzo[d]imidazole] | 140 nM | 140 nM | 9300 nM | > 50000 nM
COc1ccc(-c2nc3c(C)cc(C4CCN(C5CCN(CC(C)C)CC5)CC4)cc3[nH]2)cc1F [Example 56, 2-(3-fluoro-4-methoxyphenyl)-6-(1′-isobutyl-[1,4′-bipiperidin]-4-yl)-4-methyl-1H-benzo[d]imidazole] | 50 nM | 50 nM | 3200 nM | > 50000 nM
COc1ccc(-c2nc3c(C)cc(C4CCN(C5CCN(C6CC6)CC5)CC4)cc3[nH]2)cc1F [Example 57, 6-(1′-cyclopropyl-[1,4′-bipiperidin]-4-yl)-2-(3-fluoro-4-methoxyphenyl)-4-methyl-1H-benzo[d]imidazole] | 170 nM | 171 nM | 16000 nM | > 50000 nM
Cc1cc(C2CCN(C3CCN(CC(C)C)CC3)CC2)cc2[nH]c(-c3ccc(S(C)(=O)=O)cc3)nc12 [Example 58, 6-(1′-isobutyl-[1,4′-bipiperidin]-4-yl)-4-methyl-2-(4-(methylsulfonyl)phenyl)-1H-benzo[d]imidazole tris(2,2,2-trifluoroacetate)] | 47 nM | 47 nM | 3100 nM | > 50000 nM
Cc1cc(C2CCN(C3CCN(CC(C)C)CC3)CC2)cc2[nH]c(-c3ccnc4ccccc34)nc12 [Example 59, 4-(6-(1′-isobutyl-[1,4′-bipiperidin]-4-yl)-4-methyl-1H-benzo[d]imidazol-2-yl)quinoline] | 100 nM | 100 nM | 3800 nM | > 50000 nM
Cc1cc(-c2nc3c(C)cc(C4CCN(C5CCN(CC(C)C)CC5)CC4)cc3[nH]2)cc(C)n1 [Example 60, 2-(2,6-dimethylpyridin-4-yl)-6-(1′-isobutyl-[1,4′-bipiperidin]-4-yl)-4-methyl-1H-benzo[d]imidazole] | 45 nM | 45 nM | 1500 nM | > 50000 nM
Cc1cc(C2CCN(C3CCN(CC(C)C)CC3)CC2)cc2[nH]c(-c3ccc4c(c3)OCCO4)nc12 [Example 62, 2-(2,3-dihydrobenzo[b][1,4]dioxin-6-yl)-6-(1′-isobutyl-[1,4′-bipiperidin]-4-yl)-4-methyl-1H-benzo[d]imidazole] | 350 nM | 345 nM | 740 nM | > 50000 nM
Cc1cc(-c2ccc(N3CCN(C(C)C)CC3)cc2)cc2c1nc(-c1ccc(S(C)(=O)=O)cc1)n2C [Example 86, 6-(4-(4-isopropylpiperazin-1-yl)phenyl)-1,4-dimethyl-2-(4-(methylsulfonyl)phenyl)-1H-benzo[d]imidazole] | 300 nM | – | 5200 nM | > 50000 nM
